Inhibition data for 5 molecules are collected here from ChEMBL document CHEMBL3132769, “Fragment growing to retain or alter the selectivity of anchored kinase hinge-binding fragments” (Medchemcomm, 2014).

Experiment [1] addresses T1, Testis-specific serine/threonine-protein kinase 2 (Homo sapiens) (UniProt Q96PF2).
T1 sequence (whole entry): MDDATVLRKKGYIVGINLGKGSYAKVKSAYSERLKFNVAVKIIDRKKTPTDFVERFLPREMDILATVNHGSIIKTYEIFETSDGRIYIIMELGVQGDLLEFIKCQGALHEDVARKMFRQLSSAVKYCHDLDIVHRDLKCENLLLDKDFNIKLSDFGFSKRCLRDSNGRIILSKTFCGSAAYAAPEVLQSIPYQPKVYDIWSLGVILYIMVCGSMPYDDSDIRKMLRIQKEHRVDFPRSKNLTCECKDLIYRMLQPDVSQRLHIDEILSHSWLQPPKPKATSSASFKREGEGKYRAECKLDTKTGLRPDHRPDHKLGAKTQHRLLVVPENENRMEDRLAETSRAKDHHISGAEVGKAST
As to the kind of experiment: Inhibition of human full length TSSK2 expressed in baculovirus assessed as substrate phosphorylation using fluorescence-labelled peptides as substrate at 2 uM after 90 mins by microfluidic peptide phosphorylation assay.

Experiment [2] deals with Ribosomal protein S6 kinase alpha-1 (Homo sapiens) (UniProt Q15418). Put plainly: Inhibition of human full length RSK1 expressed in baculovirus assessed as substrate phosphorylation using fluorescence-labelled peptides as substrate at 0.1 uM after 90 mins by microfluidic peptide phosphorylation assay.
The target in experiment [3] is Fibroblast growth factor receptor 1 (Homo sapiens) (UniProt P11362). Put plainly: Inhibition of human FGFR1 catalytic domain expressed in baculovirus assessed as substrate phosphorylation using fluorescence-labelled peptides as substrate at 0.1 uM after 90 mins by microfluidic peptide phosphorylation assay.
Experiment [4] has as its target Epidermal growth factor receptor (Homo sapiens) (UniProt P00533). Put plainly: Inhibition of human EGFR catalytic domain expressed in baculovirus assessed as substrate phosphorylation using fluorescence-labelled peptides as substrate at 0.2 uM after 90 mins by microfluidic peptide phosphorylation assay.
Experiment [5] concerns the target T2, cGMP-dependent protein kinase 1 (Homo sapiens) (UniProt Q13976).
T2 sequence (whole entry): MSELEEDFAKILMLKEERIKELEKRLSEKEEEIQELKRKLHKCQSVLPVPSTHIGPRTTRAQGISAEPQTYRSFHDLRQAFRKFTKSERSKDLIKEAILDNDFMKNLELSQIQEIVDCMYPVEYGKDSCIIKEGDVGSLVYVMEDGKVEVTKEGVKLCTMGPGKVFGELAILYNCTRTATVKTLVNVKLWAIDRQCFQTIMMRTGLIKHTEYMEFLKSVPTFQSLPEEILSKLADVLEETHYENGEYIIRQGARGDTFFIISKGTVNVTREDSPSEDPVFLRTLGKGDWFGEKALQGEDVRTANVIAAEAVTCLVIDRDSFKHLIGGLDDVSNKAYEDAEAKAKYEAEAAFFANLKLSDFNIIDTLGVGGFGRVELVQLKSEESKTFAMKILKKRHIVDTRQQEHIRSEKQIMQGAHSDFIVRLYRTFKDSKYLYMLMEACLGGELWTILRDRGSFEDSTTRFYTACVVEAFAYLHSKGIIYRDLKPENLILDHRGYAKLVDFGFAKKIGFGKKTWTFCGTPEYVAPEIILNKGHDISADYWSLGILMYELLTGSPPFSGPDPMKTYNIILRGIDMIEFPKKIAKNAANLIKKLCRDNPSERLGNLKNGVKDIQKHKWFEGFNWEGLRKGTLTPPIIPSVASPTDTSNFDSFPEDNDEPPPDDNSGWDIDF
Put plainly: Inhibition of human full length PKG-1beta expressed in baculovirus assessed as substrate phosphorylation using fluorescence-labelled peptides as substrate at 70 uM after 90 mins by microfluidic peptide phosphorylation assay.

The target of experiment [6] is Platelet-derived growth factor receptor alpha (Homo sapiens) (UniProt P16234). Put plainly: Inhibition of human PDGFR alpha catalytic domain expressed in baculovirus assessed as substrate phosphorylation using fluorescence-labelled peptides as substrate at 420 uM after 90 mins by microfluidic peptide phosphorylation assay.
In experiment [7] the target is T3, Mitogen-activated protein kinase 13 (Homo sapiens) (UniProt O15264).
T3 sequence (whole entry): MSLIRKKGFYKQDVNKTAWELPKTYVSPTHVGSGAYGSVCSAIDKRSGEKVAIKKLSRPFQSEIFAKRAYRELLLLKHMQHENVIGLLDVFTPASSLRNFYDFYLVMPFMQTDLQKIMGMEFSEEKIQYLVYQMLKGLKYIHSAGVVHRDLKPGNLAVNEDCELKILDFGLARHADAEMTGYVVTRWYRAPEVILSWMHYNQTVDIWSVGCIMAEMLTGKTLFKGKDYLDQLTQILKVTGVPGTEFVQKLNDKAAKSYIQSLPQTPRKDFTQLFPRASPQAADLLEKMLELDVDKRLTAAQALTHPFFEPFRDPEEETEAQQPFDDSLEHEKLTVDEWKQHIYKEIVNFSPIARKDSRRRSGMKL
Put plainly: Inhibition of human full length p38 delta expressed in Escherichia coli cell assessed as substrate phosphorylation using fluorescence-labelled peptides as substrate at 420 uM after 90 mins by microfluidic peptide phosphorylation assay.

Experiment [8] has as its target T4, Serine/threonine-protein kinase Chk1 (Homo sapiens) (UniProt O14757).
T4 sequence (whole entry): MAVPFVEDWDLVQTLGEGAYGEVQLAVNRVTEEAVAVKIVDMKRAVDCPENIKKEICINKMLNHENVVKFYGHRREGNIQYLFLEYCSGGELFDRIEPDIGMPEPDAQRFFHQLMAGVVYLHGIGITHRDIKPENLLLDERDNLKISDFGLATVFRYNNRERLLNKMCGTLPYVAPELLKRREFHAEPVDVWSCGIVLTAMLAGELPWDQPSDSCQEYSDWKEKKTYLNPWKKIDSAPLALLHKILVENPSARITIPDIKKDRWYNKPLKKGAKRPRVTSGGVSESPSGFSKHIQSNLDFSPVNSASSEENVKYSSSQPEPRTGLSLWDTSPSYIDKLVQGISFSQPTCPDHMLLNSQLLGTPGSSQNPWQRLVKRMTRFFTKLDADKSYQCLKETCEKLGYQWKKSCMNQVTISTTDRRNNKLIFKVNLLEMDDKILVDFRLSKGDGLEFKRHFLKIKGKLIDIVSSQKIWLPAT
Put plainly: Inhibition of human full length CHK1 expressed in baculovirus assessed as substrate phosphorylation using fluorescence-labelled peptides as substrate at 420 uM after 90 mins by microfluidic peptide phosphorylation assay.

Experiment [9] concerns the target Protein kinase C theta type (Homo sapiens) (UniProt Q04759). Put plainly: Inhibition of human truncated PKC theta expressed in baculovirus assessed as substrate phosphorylation using fluorescence-labelled peptides as substrate at 420 uM after 90 mins by microfluidic peptide phosphorylation assay.

Chain of Protein kinase C theta type (Homo sapiens) (Q04759 whole entry, looked up, the tested form may be a part): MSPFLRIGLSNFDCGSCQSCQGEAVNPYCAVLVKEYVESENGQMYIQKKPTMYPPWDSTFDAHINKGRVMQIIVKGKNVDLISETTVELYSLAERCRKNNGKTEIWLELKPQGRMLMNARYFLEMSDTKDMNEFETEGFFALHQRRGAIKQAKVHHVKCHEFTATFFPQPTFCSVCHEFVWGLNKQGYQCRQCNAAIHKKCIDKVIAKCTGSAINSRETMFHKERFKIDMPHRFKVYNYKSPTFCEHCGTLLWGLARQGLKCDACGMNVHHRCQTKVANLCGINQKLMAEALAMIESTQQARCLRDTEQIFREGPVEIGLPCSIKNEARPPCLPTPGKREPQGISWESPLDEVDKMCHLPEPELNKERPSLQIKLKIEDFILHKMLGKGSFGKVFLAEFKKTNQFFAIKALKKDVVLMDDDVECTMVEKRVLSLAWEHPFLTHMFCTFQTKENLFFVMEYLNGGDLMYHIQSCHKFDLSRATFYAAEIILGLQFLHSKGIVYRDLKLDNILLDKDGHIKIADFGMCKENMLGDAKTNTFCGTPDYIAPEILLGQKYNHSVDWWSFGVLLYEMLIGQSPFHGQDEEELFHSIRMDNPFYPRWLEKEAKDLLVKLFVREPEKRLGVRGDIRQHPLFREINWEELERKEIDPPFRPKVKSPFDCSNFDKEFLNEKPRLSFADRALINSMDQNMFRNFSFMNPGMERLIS
Chain of Fibroblast growth factor receptor 1 (Homo sapiens) (P11362 22-822 limits assumed): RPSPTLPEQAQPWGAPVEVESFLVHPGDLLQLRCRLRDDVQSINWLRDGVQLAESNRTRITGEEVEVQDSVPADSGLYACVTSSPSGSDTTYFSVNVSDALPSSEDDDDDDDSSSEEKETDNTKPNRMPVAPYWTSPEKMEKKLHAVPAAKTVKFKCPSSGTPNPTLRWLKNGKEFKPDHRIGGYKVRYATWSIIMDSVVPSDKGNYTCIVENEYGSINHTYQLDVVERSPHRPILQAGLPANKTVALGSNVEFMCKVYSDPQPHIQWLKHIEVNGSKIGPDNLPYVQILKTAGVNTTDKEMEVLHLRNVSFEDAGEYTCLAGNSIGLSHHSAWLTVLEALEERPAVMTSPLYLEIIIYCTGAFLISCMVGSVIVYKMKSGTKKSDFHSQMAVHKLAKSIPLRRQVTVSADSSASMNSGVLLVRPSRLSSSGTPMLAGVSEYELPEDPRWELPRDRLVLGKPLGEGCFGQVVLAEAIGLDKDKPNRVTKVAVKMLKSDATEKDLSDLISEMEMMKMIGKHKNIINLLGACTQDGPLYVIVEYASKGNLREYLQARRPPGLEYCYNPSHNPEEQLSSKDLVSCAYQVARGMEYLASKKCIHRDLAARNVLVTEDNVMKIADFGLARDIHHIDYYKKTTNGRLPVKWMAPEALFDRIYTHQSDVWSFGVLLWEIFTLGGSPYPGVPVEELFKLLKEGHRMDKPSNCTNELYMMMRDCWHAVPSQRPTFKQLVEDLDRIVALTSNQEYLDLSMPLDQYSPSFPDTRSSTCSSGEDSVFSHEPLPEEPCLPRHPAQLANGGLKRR
Chain of Epidermal growth factor receptor (Homo sapiens) (P00533 whole entry, the tested form may be a part): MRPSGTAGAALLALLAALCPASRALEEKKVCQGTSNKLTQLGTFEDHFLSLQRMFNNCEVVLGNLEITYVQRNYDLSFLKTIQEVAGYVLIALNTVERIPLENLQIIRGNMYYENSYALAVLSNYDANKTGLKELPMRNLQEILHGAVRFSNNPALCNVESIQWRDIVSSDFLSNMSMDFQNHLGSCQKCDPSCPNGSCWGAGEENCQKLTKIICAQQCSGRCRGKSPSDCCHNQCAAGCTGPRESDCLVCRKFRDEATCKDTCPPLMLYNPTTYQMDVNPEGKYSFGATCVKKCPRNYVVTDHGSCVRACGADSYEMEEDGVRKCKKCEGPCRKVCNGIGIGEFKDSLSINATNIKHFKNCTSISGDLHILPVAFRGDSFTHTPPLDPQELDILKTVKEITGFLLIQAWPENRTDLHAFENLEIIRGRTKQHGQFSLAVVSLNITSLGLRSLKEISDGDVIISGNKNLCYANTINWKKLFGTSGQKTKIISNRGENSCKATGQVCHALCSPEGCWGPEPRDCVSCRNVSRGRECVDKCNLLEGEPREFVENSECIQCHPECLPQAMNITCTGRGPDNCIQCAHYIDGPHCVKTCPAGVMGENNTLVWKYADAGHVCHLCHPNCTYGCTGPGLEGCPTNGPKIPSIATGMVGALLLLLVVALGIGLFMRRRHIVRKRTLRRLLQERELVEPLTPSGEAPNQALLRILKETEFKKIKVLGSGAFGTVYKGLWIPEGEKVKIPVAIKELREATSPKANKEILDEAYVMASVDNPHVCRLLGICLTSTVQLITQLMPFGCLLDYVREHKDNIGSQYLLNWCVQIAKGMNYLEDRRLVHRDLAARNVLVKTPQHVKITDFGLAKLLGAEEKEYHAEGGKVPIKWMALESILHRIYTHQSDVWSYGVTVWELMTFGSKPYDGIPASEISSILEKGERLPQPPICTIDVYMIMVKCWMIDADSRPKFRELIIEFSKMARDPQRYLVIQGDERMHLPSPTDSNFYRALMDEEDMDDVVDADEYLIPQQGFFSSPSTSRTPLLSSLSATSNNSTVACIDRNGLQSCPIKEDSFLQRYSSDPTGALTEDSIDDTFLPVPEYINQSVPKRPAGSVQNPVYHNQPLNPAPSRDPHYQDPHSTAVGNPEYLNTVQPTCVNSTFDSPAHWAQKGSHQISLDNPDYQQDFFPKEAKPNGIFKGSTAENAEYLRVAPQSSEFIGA
Chain of Ribosomal protein S6 kinase alpha-1 (Homo sapiens) (Q15418 whole entry, the tested form may be a part): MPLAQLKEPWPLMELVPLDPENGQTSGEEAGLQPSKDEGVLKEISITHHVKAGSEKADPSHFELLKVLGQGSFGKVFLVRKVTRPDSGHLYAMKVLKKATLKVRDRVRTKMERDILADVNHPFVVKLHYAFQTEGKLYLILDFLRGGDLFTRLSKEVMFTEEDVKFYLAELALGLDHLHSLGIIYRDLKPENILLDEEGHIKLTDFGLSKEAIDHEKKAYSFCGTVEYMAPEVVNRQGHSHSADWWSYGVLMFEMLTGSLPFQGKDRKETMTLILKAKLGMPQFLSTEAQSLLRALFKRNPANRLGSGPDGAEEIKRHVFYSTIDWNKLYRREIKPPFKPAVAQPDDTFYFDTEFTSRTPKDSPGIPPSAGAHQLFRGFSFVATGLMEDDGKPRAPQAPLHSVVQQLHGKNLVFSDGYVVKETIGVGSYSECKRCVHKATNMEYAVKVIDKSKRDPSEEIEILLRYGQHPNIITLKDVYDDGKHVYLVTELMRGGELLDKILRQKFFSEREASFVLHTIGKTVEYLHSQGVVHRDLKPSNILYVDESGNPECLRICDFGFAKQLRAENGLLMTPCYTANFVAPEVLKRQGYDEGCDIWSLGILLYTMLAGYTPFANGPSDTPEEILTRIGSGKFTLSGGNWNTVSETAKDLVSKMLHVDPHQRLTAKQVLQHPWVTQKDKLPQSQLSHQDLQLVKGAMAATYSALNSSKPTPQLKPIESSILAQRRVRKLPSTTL
Chain of Platelet-derived growth factor receptor alpha (Homo sapiens) (P16234 whole entry, the tested form may be a part): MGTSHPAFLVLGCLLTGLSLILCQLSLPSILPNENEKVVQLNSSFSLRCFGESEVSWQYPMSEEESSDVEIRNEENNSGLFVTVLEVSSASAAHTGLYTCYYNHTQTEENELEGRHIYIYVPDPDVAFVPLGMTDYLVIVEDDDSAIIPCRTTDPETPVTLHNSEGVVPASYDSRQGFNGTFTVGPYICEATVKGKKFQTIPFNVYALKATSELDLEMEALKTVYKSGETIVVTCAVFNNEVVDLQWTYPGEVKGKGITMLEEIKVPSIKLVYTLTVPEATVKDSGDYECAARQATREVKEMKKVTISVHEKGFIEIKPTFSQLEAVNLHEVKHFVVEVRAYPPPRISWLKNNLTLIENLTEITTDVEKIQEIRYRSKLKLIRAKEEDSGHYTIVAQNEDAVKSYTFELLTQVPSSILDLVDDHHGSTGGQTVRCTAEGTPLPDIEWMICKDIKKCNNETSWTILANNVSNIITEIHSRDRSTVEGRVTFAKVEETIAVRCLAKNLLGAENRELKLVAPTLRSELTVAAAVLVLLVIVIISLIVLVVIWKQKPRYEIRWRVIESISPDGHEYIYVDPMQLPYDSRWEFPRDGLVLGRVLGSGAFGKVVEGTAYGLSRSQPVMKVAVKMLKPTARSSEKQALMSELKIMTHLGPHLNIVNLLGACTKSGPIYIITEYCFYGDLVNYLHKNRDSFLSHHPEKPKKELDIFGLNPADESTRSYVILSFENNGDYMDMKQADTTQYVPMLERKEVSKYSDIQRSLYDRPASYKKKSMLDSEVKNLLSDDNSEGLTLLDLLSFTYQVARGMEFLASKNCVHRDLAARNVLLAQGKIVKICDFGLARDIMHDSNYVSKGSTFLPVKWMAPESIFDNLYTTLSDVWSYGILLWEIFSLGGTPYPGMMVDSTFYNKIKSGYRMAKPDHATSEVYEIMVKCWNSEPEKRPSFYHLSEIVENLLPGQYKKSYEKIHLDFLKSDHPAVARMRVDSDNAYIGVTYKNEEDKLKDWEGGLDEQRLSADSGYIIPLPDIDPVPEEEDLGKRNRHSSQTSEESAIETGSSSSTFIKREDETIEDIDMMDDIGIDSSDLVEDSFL

Consider `NC1CCN(c2ncnc3[nH]ccc23)CC1`, for which the inhibition in experiment [1] is 6.5%.

Consider `C[C@H](CN(C)C)Oc1nc(Nc2cc3cccc(Cl)c3cn2)cnc1C#N`, for which the inhibition is 48.5% in experiment [2] and 2.5% in experiment [3].

Consider `Clc1ccc(C2(c3ccc(-c4ncnc5[nH]cnc45)cc3)CCNCC2)cc1`, for which the inhibition in experiment [4] came to 2.5%.

With `CNCc1ccc(-c2ncnc3[nH]cnc23)cc1`, the inhibition in [5] stood at 95.5%.

On to `c1nc(N2CCOCC2)c2nc[nH]c2n1`, for which the inhibition worked out at 32.5% in experiment [6], 34% in experiment [7], 88.5% in experiment [8] and 67.5% in experiment [9].
